Our source for the T/C values is PubChem BioAssay AID192 (DTP/NCI, 2004).

In the assay the test system is BDF1 mice, B16 melanoma ip, median survival T/C. Put plainly: NCI In Vivo Anticancer Drug Screen. Data for tumor model B16 Melanoma (intraperitoneal) in B6D2F1 (BDF1) mice. To be noted: endpoint: median survival time, higher = longer survival. The method in brief: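 Antitumor activity is assessed in mice bearing a transplanted tumor, with survival or tumor size compared against vehicle-dosed controls and expressed as T/C.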

Where [1] appears, read: dose: 25.0 mg/kg/injection, schedule: Q01DX009 (ip), vehicle: saline.
[2] abbreviates: dose: 50.0 mg/kg/injection, schedule: Q01DX009 (ip), vehicle: saline.

The structures appear in SMILES notation. Where “and” joins values, the source holds several entries; their conditions need not be identical. Equal values may be shown once. Toxic doses and inconclusive results are not listed.

On to `CC[C@]12CN3CCc4c([nH]c5ccccc45)[C@@](C(=O)OC)(c4cc5c(cc4OC)N(C)[C@H]4[C@@](O)(C(=O)OC)[C@H](OC(C)=O)[C@]6(CC)C=CCN7CC[C@]54[C@@H]76)CC(C3)[C@H]1O2` (some centres undefined), for which the T/C is 106 % of control (dose: 0.05 mg/kg/injection, schedule: Q01DX009 (ip), vehicle: saline); 101 % of control (dose: 0.1 mg/kg/injection, schedule: Q01DX009 (ip), vehicle: saline); 97 % of control (dose: 0.2 mg/kg/injection, schedule: Q01DX009 (ip), vehicle: saline); 113 % of control (dose: 0.4 mg/kg/injection, schedule: Q01DX009 (ip), vehicle: saline); 107 % of control (dose: 0.75 mg/kg/injection, schedule: Q01DX009 (ip), vehicle: Klucel (hydroxypropylcellulose) (HPC)); 90 % of control (dose: 0.75 mg/kg/injection, schedule: Q01DX009 (ip), vehicle: saline). The T/C is 116 % of control (dose: 0.8 mg/kg/injection, schedule: Q01DX009 (ip), vehicle: saline); 115 % of control (dose: 1.5 mg/kg/injection, schedule: Q01DX009 (ip), vehicle: Klucel (hydroxypropylcellulose) (HPC)); 102 % of control (dose: 1.5 mg/kg/injection, schedule: Q04DX003 (ip), vehicle: saline); 113 % of control (dose: 1.6 mg/kg/injection, schedule: Q01DX009 (ip), vehicle: saline); 187 % of control (dose: 3.0 mg/kg/injection, schedule: Q01DX009 (ip), vehicle: saline); 111 % of control (dose: 3.0 mg/kg/injection, schedule: Q04DX003 (ip), vehicle: saline). The T/C (dose: 3.2 mg/kg/injection, schedule: Q01DX009 (ip), vehicle: saline) is 162 % of control; the T/C (dose: 4.0 mg/kg/injection, schedule: Q01DX009 (ip), vehicle: saline) is 175 % of control and 202 % of control; the T/C (dose: 6.0 mg/kg/injection, schedule: Q01DX009 (ip), vehicle: saline) is 221 % of control [middle of 4 runs]; the T/C (dose: 6.4 mg/kg/injection, schedule: Q01DX009 (ip), vehicle: saline) is 157 % of control; the T/C (dose: 9.0 mg/kg/injection, schedule: Q01DX009 (ip), vehicle: saline) was 212 % of control and 248 % of control; the T/C (dose: 12.0 mg/kg/injection, schedule: Q01DX009 (ip), vehicle: Klucel (hydroxypropylcellulose) (HPC)) was 168 % of control. Also, the T/C was 161 % of control (dose: 12.0 mg/kg/injection, schedule: Q01DX009 (ip), vehicle: saline); 152 % of control (dose: 12.0 mg/kg/injection, schedule: Q04DX003 (ip), vehicle: saline); 169 % of control (dose: 12.8 mg/kg/injection, schedule: Q01DX009 (ip), vehicle: saline).

Consider `C=CCOP(=O)(N1CC1C)N1CC1C` (centres undefined), for which the T/C by setting is: under setting [1], 95 % of control; under setting [2], 96 % of control; (dose: 50.0 mg/kg/injection, schedule: Q04DX003 (ip), vehicle: saline) 97 % of control; (dose: 100.0 mg/kg/injection, schedule: Q04DX003 (ip), vehicle: saline) 105 % of control.

Consider `CC(C)=CCC1=C(O)c2ccccc2C(=O)C1=O`, for which the T/C runs as follows: (dose: 6.25 mg/kg/injection, schedule: Q01DX009 (ip), vehicle: saline with Tween-80) 90 % of control; (dose: 8.33 mg/kg/injection, schedule: Q#B X027 (ip), vehicle: water) 100 % of control; (dose: 12.5 mg/kg/injection, schedule: Q01DX009 (ip), vehicle: saline with Tween-80) 90 % of control; (dose: 16.66 mg/kg/injection, schedule: Q#B X027 (ip), vehicle: water) 103 % of control; (dose: 16.66 mg/kg/injection, schedule: Q#B X027 (sc), vehicle: water) 106 % of control; (dose: 25.0 mg/kg/injection, schedule: Q#A X018 (oral), vehicle: water) 90 % of control. Moreover, the T/C (dose: 33.33 mg/kg/injection, schedule: Q#B X027 (ip), vehicle: water) was 100 % of control; the T/C (dose: 33.33 mg/kg/injection, schedule: Q#B X027 (oral), vehicle: water) was 100 % of control; the T/C (dose: 33.33 mg/kg/injection, schedule: Q#B X027 (sc), vehicle: water) was 106 % of control; the T/C (dose: 50.0 mg/kg/injection, schedule: Q01DX009 (ip), vehicle: saline with Tween-80) is 88 % of control and 97 % of control; the T/C (dose: 50.0 mg/kg/injection, schedule: Q#A X018 (oral), vehicle: water) was 86 % of control; the T/C (dose: 66.66 mg/kg/injection, schedule: Q#B X027 (ip), vehicle: water) is 96 % of control. In addition, the T/C runs as follows: (dose: 66.66 mg/kg/injection, schedule: Q#B X027 (oral), vehicle: water) 106 % of control; (dose: 66.66 mg/kg/injection, schedule: Q#B X027 (sc), vehicle: water) 93 % of control; (dose: 100.0 mg/kg/injection, schedule: Q01DX009 (ip), vehicle: saline with Tween-80) 95 % of control; (dose: 100.0 mg/kg/injection, schedule: Q01DX018 (oral), vehicle: water) 106 % of control; (dose: 100.0 mg/kg/injection, schedule: Q#A X018 (oral), vehicle: water) 100 % of control; (dose: 133.33 mg/kg/injection, schedule: Q#B X027 (oral), vehicle: water) 120 % of control. Moreover, the T/C by setting is: (dose: 133.33 mg/kg/injection, schedule: Q#B X027 (sc), vehicle: water) 93 % of control; (dose: 175.0 mg/kg/injection, schedule: Q01DX018 (oral), vehicle: water) 96 % of control; (dose: 175.0 mg/kg/injection, schedule: Q#A X018 (oral), vehicle: water) 113 % of control; (dose: 200.0 mg/kg/injection, schedule: Q01DX009 (ip), vehicle: saline with Tween-80) 95 % of control; (dose: 200.0 mg/kg/injection, schedule: Q01DX009 (ip), vehicle: saline) 119 % of control; (dose: 250.0 mg/kg/injection, schedule: Q01DX018 (oral), vehicle: water) 106 % of control. Also, the T/C is, setting by setting: (dose: 250.0 mg/kg/injection, schedule: Q#A X018 (oral), vehicle: water) 106 % of control; (dose: 325.0 mg/kg/injection, schedule: Q01DX018 (oral), vehicle: water) 113 % of control.

As to `COc1cccc(CNc2cccc([N+](=O)[O-])c2)c1OC`, the T/C (dose: 100.0 mg/kg/injection, schedule: Q01DX009 (ip), vehicle: Klucel (hydroxypropylcellulose) (HPC)) was 100 % of control; the T/C (dose: 200.0 mg/kg/injection, schedule: Q01DX009 (ip), vehicle: Klucel (hydroxypropylcellulose) (HPC)) was 110 % of control; the T/C (dose: 400.0 mg/kg/injection, schedule: Q01DX009 (ip), vehicle: Klucel (hydroxypropylcellulose) (HPC)) is 105 % of control.

`Oc1ccc(Nc2ccnc3cc(Cl)ccc23)cc1CN(CCCl)CCCl`: the T/C reads like this: (dose: 0.31 mg/kg/injection, schedule: Q01DX009 (ip), vehicle: saline) 97 % of control; (dose: 0.63 mg/kg/injection, schedule: Q01DX009 (ip), vehicle: saline) 105 % of control; (dose: 1.25 mg/kg/injection, schedule: Q01DX009 (ip), vehicle: saline) 107 % of control and 113 % of control; (dose: 2.5 mg/kg/injection, schedule: Q01DX009 (ip), vehicle: saline) 115 % of control.

`CC(=O)OC(C)(C)/C=C/C(=O)[C@](C)(O)[C@H]1[C@H](O)C[C@@]2(C)[C@@H]3CC=C4[C@@H](C=C(O)C(=O)C4(C)C)[C@]3(C)C(=O)C[C@]12C`: the T/C runs as follows: (dose: 0.25 mg/kg/injection, schedule: Q01DX009 (ip), vehicle: saline with Tween-80) 90 % of control; (dose: 0.5 mg/kg/injection, schedule: Q01DX009 (ip), vehicle: saline with Tween-80) 109 % of control; (dose: 1.0 mg/kg/injection, schedule: Q01DX009 (ip), vehicle: saline with Tween-80) 102 % of control; (dose: 2.0 mg/kg/injection, schedule: Q01DX009 (ip), vehicle: saline with Tween-80) 93 % of control; (dose: 4.0 mg/kg/injection, schedule: Q01DX009 (ip), vehicle: saline with Tween-80) 95 % of control.

Take `O=C(O)Cc1c(O)ccc2ccccc12`: the T/C by setting is: (dose: 25.0 mg/kg/injection, schedule: Q04DX003 (ip), vehicle: gum acacia) 100 % of control; (dose: 50.0 mg/kg/injection, schedule: Q04DX003 (ip), vehicle: gum acacia) 100 % of control; (dose: 100.0 mg/kg/injection, schedule: Q04DX003 (ip), vehicle: gum acacia) 97 % of control.

For the molecule `Cc1cc2c(cc1C)C(=O)c1ccccc1C2=O`, the T/C runs as follows: under setting [1], 91 % of control; under setting [2], 97 % of control; (dose: 100.0 mg/kg/injection, schedule: Q01DX009 (ip), vehicle: saline) 94 % of control.
